US20190376110A1, “METHOD TO DETECT BACTERIAL ACTIVITY AND PATHOGENICITY WITH BIODYNAMIC SENTINELS” (Purdue Research Foundation, priority 2018, published 2019)

Experiments:
[1] = tested on: Salmonella pellet; assay: Biodynamic imaging / fluctuation spectroscopy of Salmonella bacterial pellet; type: cell-based; conditions: short-time response within 30 minutes of dose
Experimental: (§1) Various bacterial specimens can be prepared in a pellet form. A pellet is a condensed form of bacteria which allows them to be carried and handled more efficiently. Bacteria are grown in LB medium for 4 to 12 hours. When culturing is done, the bacteria density in medium is approximately 10^8 #/mL. To make the pellet, 25 mL of bacteria medium is stored in a centrifuge tube. The medium is centrifuged by 10,000 rpm for 10 minutes (Avanti J-20 XPI). During centrifugation, a pellet is formed at the bottom of a centrifuge tube.
(§2) There are two different sample plate preparations. A monoplex plate is a plate preparation format to test a rapid response of bacteria in single wells. The time resolution of the spectrum measurement is 2 minutes. A multiplex plate is a mode for measuring slow behavior using a measuring period is 30 minutes. For the multiplex, 16 wells are measured in parallel. A plate is firmly fixed on a translational stage controlled at 37 degrees Celsius or other temperature depending on the cell type and the bacterium. The plate is covered with a semi-permeable membrane which prevents the medium from drying out while permitting air molecule exchange.
(§3) Backscattered light from a specimen forms a speckle field consisting of many speckles with sizes determined by the point-spread-function of the imaging optics, and the speckle is delivered by a 4-f system (L1 and L2, f=15 cm). […]

[2] = tested on: Listeria pellet; conditions: short-time response within 30 minutes of dose
Experimental: as §1, §2, §3

[3] = tested on: E. coli pellet; assay: Biodynamic imaging / fluctuation spectroscopy of E. coli bacterial pellet; type: cell-based
Experimental: as §1, §2
Backscattered light from a specimen forms a speckle field consisting of many speckles with sizes determined by the point-spread-function of the imaging optics, and the speckle is delivered by a 4-f system (L1 and L2, f=15 cm). After the 4-f system, a lens (L3, f=5 cm) conducts Fourier transformation of the speckle and the Fourier image is formed at a Fourier plane on a Fourier-domain pixel array (such as a CCD).
To gain a more specific understanding of the effect of the nutrient shock, […] is used in a mode called […]. This breaks down the effects of a perturbation into a range of frequencies that are altered by the perturbation. Fluctuation spectroscopy is used routinely in biodynamic imaging applications for drug assays on cancer tissue. In the context of the bacterial pellets, the perturbation similarly can cause spectral changes whose specific frequencies relate to specific speeds of biological processes involved.

[4] = tested on: Listeria monocytogenes infection of DLD-1 sentinel; assay: Tissue sentinel antibiotic assay, DLD-1 spheroids infected by Listeria; type: cell-based
Experimental: As one example of an infection assay, a DLD-1 colon cancer cell line is prepared as a tissue fragment sentinel. DLD-1 cell lines are cultured for 24 hours and form a spheroid shape after incubation. Spheroids are immobilized within two hours by poly-D-lysine after placing spheroids on a bottom of plate.
To obtain infection spectra, bacteria in a pellet form can be re-suspended by diluting a pellet with various media (5% NaCl, growth medium, PBS etc.). The diluting process produces a uniform concentration of bacteria, and the bacterial concentration can be controlled by controlling volumes of media.
as §2
One of the most important applications of the tissue sentinels is to serve as a dynamic substrate for the study of antibiotic sensitivity and resistance. […]

## O=C(O)c1cn(C2CC2)c2cc(N3CCNCC3)c(F)cc2c1=O [Cipro, Ciprofloxacin]
[1]
  response of highest frequencies to Cipro: not affected
[2]
  response of highest frequencies to Cipro: not affected
[3]; short-time response within 30 minutes of dose
  response of highest frequencies to Cipro: not affected

## [Na+].[OH-] [NaOH]
[3]; FIG. 10
  spectrogram response of E. coli pellet to chemical agent: broad inhibition of activity
[3]; FIG. 10 legend
  low frequency response after adding chemical agents: highly suppressed

## CCO [ethanol]
[3]; 70% ethanol
  response of highest frequency: relatively unaffected

## CC1(C)S[C@@H]2[C@H](NC(=O)Cc3ccccc3)C(=O)N2[C@H]1C(=O)O [penicillin, penicillin G]
[4]; L. mono, penicillin alone
  time after antibiotic at which weak infection signal emerges: about 8 hours
[4]; penicillin alone without streptomycin, FIG. 22
  inhibition of L. mono strain by antibiotic: not completely inhibited
